Assay results published in patent US7709478B2, “Acylated 6,7,8,9-tetrahydro-5H-benzocycloheptenyl amines and their use as pharmaceutical agents” (sanofi-aventis Deutschland GmbH, priority 2001, dated 2010).
pEC50: −log10 of the molar value. Structures can show the parent of a compound that is named as a salt.

Test system: eNOS promoter
Assay: Activation of eNOS transcription (eNOS promoter-luciferase reporter gene assay)
Assay type: cell-based, human
Details: 18 h incubation; for pEC50: EC50 of transcription induction ratio vs compound concentration, determined graphically, human endothelial cell line stably transfected with eNOS promoter-luciferase construct; for TIR(max) / maximal fold induction: maximum transcription induction ratio (luciferase activity with compound / solvent alone), human endothelial cell line with eNOS promoter-luciferase construct; for maximal fold induction: read-out: TIR(max)
Protocol: Measurement of Activation of eNOS Transcription
Activation of eNOS transcription was measured as described in detail in Li et al. “Activation of protein kinase C alpha and/or epsilon enhances transcription of the human endothelial nitric oxide synthase gene”, Mol. Pharmacol. 1998; 53: 630-637.
Briefly, a 3.5 kB long fragment 5′ of the starting codon of the eNOS gene was cloned, sequenced and cloned in firefly luciferase expression plasmids to monitor activation of the eNOS promoter by reporter gene activity. A human endothelial cell line stable transfected and expressing this promoter-reporter construct was used for compound testing. Cells were incubated for 18 h with compounds.
All compounds were dissolved in sterile DMSO. A final concentration of 0.5% DMSO in complete medium was allowed. Induction of reporter gene expression in these cells was measured using a standard luciferase assay system (Promega, Cat. No E150) according to the manufacturer's instructions. Luciferase induction in cells incubated with compounds were compared to those incubated with solvent alone. The ratio of both activities (transcription induction ratio, TIR) was plotted as a function of compound concentration. Typically, TIR values started at low concentrations at a ratio of 1, indicating no compound effect, and extended up to a maximum TIR value TIR(max) which indicates the increase of the eNOS transcription. EC50 values of transcription induction ratios as a function of compound concentration were determined graphically.

SMILES | pEC50 | TIR(max) | maximal fold induction
Cc1cnc(C(=O)NC2CCCc3ccccc3C2)cn1 (single isomer, unassigned) [Compound 33, 5-METHYL-PYRAZINE-2-CARBOXYLIC ACID (6,7,8,9-TETRAHYDRO-5H-BENZOCYCLOHEPTEN-6-YL)-AMIDE] | 5.48 | 2.6 | –
Cc1ccc(S(C)(=O)=O)cc1C(=O)NC1CCCc2ccccc2C1 (stereo not shown) [Compound 140, 5-METHANESULFONYL-2-METHYL-N-(6,7,8,9-TETRAHYDRO-5H-BENZOCYCLOHEPTEN-6-YL)-BENZAMIDE] | 5.89 | – | 3
NS(=O)(=O)c1cc(C(=O)NC2CCCc3ccccc3C2)ccc1Cl (stereo not shown) [Compound 138, 4-CHLORO-3-SULFAMOYL-N-(6,7,8,9-TETRAHYDRO-5H-BENZOCYCLOHEPTEN-6-YL)-BENZAMIDE] | 5.00 | – | 3
Nc1c(C(=O)NC2CCCc3ccccc3C2)cnn1-c1ccccc1 (stereo not shown) [Compound 61, 5-AMINO-1-PHENYL-1H-PYRAZOLE-4-CARBOXYLIC ACID (6,7,8,9-TETRAHYDRO-5H-BENZOCYCLOHEPTEN-6-YL)-AMIDE] | 5.64 | – | 3.4
CCSc1ncc(C(=O)NC2CCCc3ccccc3C2)c(N)n1 (stereo not shown) [Compound 74, 4-AMINO-2-ETHYLSULFANYL-PYRIMIDINE-5-CARBOXYLIC ACID (6,7,8,9-TETRAHYDRO-5H-BENZOCYCLOHEPTEN-6-YL)-AMIDE] | 4.47 | – | 3.1
Nc1nccnc1C(=O)NC1CCCc2ccccc2C1 (single isomer, unassigned) [Compound 45, 3-AMINO-PYRAZINE-2-CARBOXYLIC ACID (6,7,8,9-TETRAHYDRO-5H-BENZOCYCLOHEPTEN-6-YL)-AMIDE] | 7.22 | – | 2.9
O=C(N[C@H]1CCCc2ccccc2C1)c1ccc(N2CCCC2)nc1 [Compound 118, (S)-6-PYRROLIDIN-1-YL-N-(6,7,8,9-TETRAHYDRO-5H-BENZOCYCLOHEPTEN-6-YL)-NICOTINAMIDE] | 6.85 | – | 3
O=C(NC1CCCc2ccccc2C1)c1nc(Cl)ccc1Cl (stereo not shown) [Compound 141, 3,6-DICHLORO-PYRIDINE-2-CARBOXYLIC ACID (6,7,8,9-TETRAHYDRO-5H-BENZOCYCLOHEPTEN-6-YL)-AMIDE] | 6.60 | – | 3.2
O=C(NC1CCCc2ccccc2C1)c1ccc2[nH]nnc2c1 (stereo not shown) [Compound 13, 1H-BENZOTRIAZOLE-5-CARBOXYLIC ACID (6,7,8,9-TETRAHYDRO-5H-BENZOCYCLOHEPTEN-6-YL)-AMIDE] | 5.06 | – | 2
CS(=O)(=O)c1cccc(C(=O)NC2CCCc3ccccc3C2)c1 (stereo not shown) [Compound 139, 3-METHANESULFONYL-N-(6,7,8,9-TETRAHYDRO-5H-BENZOCYCLOHEPTEN-6-YL)-BENZAMIDE] | 5.72 | – | 3
O=C(NC1CCCc2ccccc2C1)c1ccc(F)cc1F (stereo not shown) [Compound 6, 2,4-DIFLUORO-N-(6,7,8,9-TETRAHYDRO-5H-BENZOCYCLOHEPTEN-6-YL)-BENZAMIDE] | > 7.10 | – | 3
O=C(NC1CCCc2ccccc2C1)c1ccc(Cl)nc1Cl (stereo not shown) [Compound 70, 2,6-DICHLORO-N-(6,7,8,9-TETRAHYDRO-5H-BENZOCYCLOHEPTEN-6-YL)-NICOTINAMIDE] | 5.70 | – | 3.1
Cc1cc(Cl)ccc1C(=O)NC1CCCc2ccccc2C1 (stereo not shown) [Compound 3, 4-CHLORO-2-METHYL-N-(6,7,8,9-TETRAHYDRO-5H-BENZOCYCLOHEPTEN-6-YL)-BENZAMIDE] | > 7.10 | – | 2.2
CNc1cc(C(=O)NC2CCCc3ccccc3C2)ccc1C (stereo not shown) [Compound 135, 4-METHYL-3-METHYLAMINO-N-(6,7,8,9-TETRAHYDRO-5H-BENZOCYCLOHEPTEN-6-YL)-BENZAMIDE] | 6.23 | – | 3
CN(C)c1cccc(C(=O)NC2CCCc3ccccc3C2)c1 (single isomer, unassigned) [Compound 43, 3-DIMETHYLAMINO-N-(6,7,8,9-TETRAHYDRO-5H-BENZOCYCLOHEPTEN-6-YL)-BENZAMIDE] | 7.10 | – | 3.2
N#Cc1ccc(C(=O)NC2CCCc3ccccc3C2)cn1 (stereo not shown) [Compound 21, 6-CYANO-N-(6,7,8,9-TETRAHYDRO-5H-BENZOCYCLOHEPTEN-6-YL)-NICOTINAMIDE] | 5.09 | – | 2.6
O=C(NC1CCCc2ccccc2C1)c1cc(NCc2ccccc2)ccn1 (stereo not shown) [Compound 142, 4-BENZYLAMINO-PYRIDINE-2-CARBOXYLIC ACID (6,7,8,9-TETRAHYDRO-5H-BENZOCYCLOHEPTEN-6-YL)-AMIDE] | 5.52 | – | 2.5
O=C(NC1CCCc2ccccc2C1)c1cnc2c(c1)CCCC2 (stereo not shown) [Compound 134, 5,6,7,8-TETRAHYDRO-QUINOLINE-3-CARBOXYLIC ACID (6,7,8,9-TETRAHYDRO-5H-BENZOCYCLOHEPTEN-6-YL)-AMIDE] | 5.52 | – | 3.5
CNc1cncc(C(=O)NC2CCCc3ccccc3C2)n1 (stereo not shown) [Compound 76, 6-METHYLAMINO-PYRAZINE-2-CARBOXYLIC ACID (6,7,8,9-TETRAHYDRO-5H-BENZOCYCLOHEPTEN-6-YL)-AMIDE] | 6.24 | – | 3.1
O=C(NC1CCCc2ccccc2C1)c1cccc2snnc12 (stereo not shown) [Compound 22, BENZO[1,2,3]THIADIAZOLE-4-CARBOXYLIC ACID-N-(6,7,8,9-TETRAHYDRO-5H-BENZOCYCLOHEPTEN-6-YL)-AMIDE] | 7.08 | – | 3.1
Cc1cc(C)c(C(=O)NC2CCCc3ccccc3C2)cn1 (single isomer, unassigned) [Compound 110, 4,6-DIMETHYL-N-(6,7,8,9-TETRAHYDRO-5H-BENZOCYCLOHEPTEN-6-YL)-NICOTINAMIDE] | 6.00 | – | 3.1

Now from value to compound, other results behind:

pEC50 | SMILES | TIR(max) | maximal fold induction
7.70 | Cc1cc(C(=O)NC2CCCc3ccccc3C2)c(C)n1Cc1ccncc1 (single isomer, unassigned; (+)) [Compound 47, (+)-2,5-DIMETHYL-1-PYRIDIN-4-YLMETHYL-1H-PYRROLE-3-CARBOXYLIC ACID (6,7,8,9-TETRAHYDRO-5H-BENZOCYCLOHEPTEN-6-YL)-AMIDE] | – | 3.4
7.70 | Cc1nc(N)c(C(=O)N[C@H]2CCCc3ccccc3C2)nc1C [Compound 115, (S)-3-AMINO-5,6-DIMETHYL-PYRAZINE-2-CARBOXYLIC ACID (6,7,8,9-TETRAHYDRO-5H-BENZOCYCLOHEPTEN-6-YL)-AMIDE] | – | 3
7.30 | Cc1nc2cc(C(=O)N[C@H]3CCCc4ccccc4C3)ccc2[nH]1 [Compound 36, (S)-2-METHYL-1H-BENZOIMIDAZOLE-5-CARBOXYLIC ACID (6,7,8,9-TETRAHYDRO-5H-BENZOCYCLOHEPTEN-6-YL)-AMIDE HYDROCHLORIDE] | – | 3.3
7.82 | Cc1cc(C(=O)N[C@H]2CCCc3ccccc3C2)n(C)n1 [Compound 122, (S)-2,5-DIMETHYL-2H-PYRAZOLE-3-CARBOXYLIC ACID (6,7,8,9-TETRAHYDRO-5H-BENZOCYCLOHEPTEN-6-YL)-AMIDE] | – | 2.85
7.28 | CN(C)c1ccc(C(=O)NC2CCCc3ccccc3C2)cn1 (stereo not shown) [Compound 81, 6-DIMETHYLAMINO-N-(6,7,8,9-TETRAHYDRO-5H-BENZOCYCLOHEPTEN-6-YL)-NICOTINAMIDE] | – | 3.3
7.40 | Cc1cc(C(=O)NC2CCCc3ccccc3C2)c(C)[nH]1 (single isomer, unassigned; (+)) [Compound 49, (+)-2,5-DIMETHYL-1H-PYRROLE-3-CARBOXYLIC ACID (6,7,8,9-TETRAHYDRO-5H-BENZOCYCLOHEPTEN-6-YL)-AMIDE] | – | 3
7.30 | O=C(N[C@H]1CCCc2ccccc2C1)c1cccc(N2CCCC2)c1 [Compound 132, (S)-3-PYRROLIDIN-1-YL-N-(6,7,8,9-TETRAHYDRO-5H-BENZOCYCLOHEPTEN-6-YL)-BENZAMIDE] | – | 3.1
8.00 | Nc1cccnc1C(=O)NC1CCCc2ccccc2C1 (stereo not shown) [Compound 144, 3-AMINO-PYRIDINE-2-CARBOXYLIC ACID (6,7,8,9-TETRAHYDRO-5H-BENZOCYCLOHEPTEN-6-YL)-AMIDE] | – | 2.9
8.22 | CNc1nc(C)ccc1C(=O)NC1CCCc2ccccc2C1 (single isomer, unassigned) [Compound 124, 6-METHYL-2-METHYLAMINO-N-(6,7,8,9-TETRAHYDRO-5H-BENZOCYCLOHEPTEN-6-YL)-NICOTINAMIDE] | 2.9 | –
7.42 | Cc1ccc(C(=O)NC2CCCc3ccccc3C2)c(Cl)n1 (stereo not shown) [Compound 16, 2-CHLORO-6-METHYL-N-(6,7,8,9-TETRAHYDRO-5H-BENZOCYCLOHEPTEN-6-YL)-NICOTINAMIDE] | – | 2.9
7.31 | Cc1nc(C)c(C(=O)NC2CCCc3ccccc3C2)s1 (single isomer, unassigned) [Compound 28, 2,4-DIMETHYL-THIAZOLE-5-CARBOXYLIC ACID (6,7,8,9-TETRAHYDRO-5H-BENZOCYCLOHEPTEN-6-YL)-AMIDE] | – | 3.4
